Legend:
Test in all cases: Antibiotic susceptibility profile
Format in all cases: cell-based, Acinetobacter baumannii
Design in all cases: key: Resistance; Intermediate; Susceptible
[1] = test system: A. baumannii clinical isolate NY B
Excerpt: (§1) We obtained over thirty clinical isolates of A. baumannii from nosocomial infections in New York City and Los Angeles. […] Only antibiotics with breakpoints for A. baumannii were used. […] Isolates LA 01 to 20 were acquired from Los Angels County while NY-A to NY-H were obtained from New York City.
(§2) Antibiotic susceptibility profiles of clinical isolates of A. baumannii and reference strains. R, I, and S denote Resistance, Intermediate and Susceptible, respectively. Genetic Profiling of Clinical Isolates of A. baumannii

[2] = test system: A. baumannii clinical isolate LAC 06
Excerpt: as §1, §2

[3] = test system: A. baumannii clinical isolate NY E
Excerpt: as §1, §2

[4] = test system: A. baumannii clinical isolate LAC 07
Excerpt: as §1, §2

[5] = test system: A. baumannii clinical isolate NY G
Excerpt: as §1, §2

[6] = test system: A. baumannii clinical isolate LAC 20
Excerpt: as §1, §2

[7] = test system: A. baumannii clinical isolate LAC 03
Excerpt: as §1, §2

[8] = test system: A. baumannii reference strain AYE
Excerpt: as §1, §2

[9] = test system: A. baumannii clinical isolate LAC 13
Excerpt: as §1, §2

[10] = test system: A. baumannii clinical isolate NY A
Excerpt: as §1, §2

[11] = test system: A. baumannii clinical isolate LAC 15
Excerpt: as §1, §2

[12] = test system: A. baumannii clinical isolate NY C
Excerpt: as §1, §2

[13] = test system: A. baumannii clinical isolate LAC 02
Excerpt: as §1, §2

[14] = test system: A. baumannii clinical isolate LAC 16
Excerpt: as §1, §2

[15] = test system: A. baumannii reference strain 19606; conditions: strain 19606 (ATCC)
Excerpt: as §1, §2

[16] = test system: A. baumannii clinical isolate LAC 19
Excerpt: as §1, §2

[17] = test system: A. baumannii clinical isolate LAC 17
Excerpt: as §1, §2

[18] = test system: A. baumannii clinical isolate LAC 04
Excerpt: as §1, §2

[19] = test system: A. baumannii clinical isolate NY D
Excerpt: as §1, §2

[20] = test system: A. baumannii clinical isolate NY F
Excerpt: as §1, §2

[21] = test system: A. baumannii clinical isolate LAC 08
Excerpt: as §1, §2

[22] = test system: A. baumannii reference strain 17978; conditions: strain 17978 (ATCC)
Excerpt: as §1, §2

[23] = test system: A. baumannii reference strain 15839; conditions: strain 15839 (ATCC)
Excerpt: as §1, §2

[24] = test system: A. baumannii clinical isolate LAC 05
Excerpt: as §1, §2

[25] = test system: A. baumannii clinical isolate LAC 10
Excerpt: as §1, §2

[26] = test system: A. baumannii clinical isolate LAC 12
Excerpt: as §1, §2

[27] = test system: A. baumannii clinical isolate LAC 11
Excerpt: as §1, §2

[28] = test system: A. baumannii reference strain SDF
Excerpt: as §1, §2

[29] = test system: A. baumannii clinical isolate LAC 14
Excerpt: as §1, §2

[30] = test system: A. baumannii clinical isolate LAC 18
Excerpt: as §1, §2

[31] = test system: A. baumannii clinical isolate NY H
Excerpt: as §1, §2

[32] = test system: A. baumannii clinical isolate LAC 09
Excerpt: as §1, §2

[33] = test system: A. baumannii clinical isolate LAC 01
Excerpt: as §1, §2

Row | SMILES | Antibiotic susceptibility [1] | Antibiotic susceptibility [2] | Antibiotic susceptibility [3] | Antibiotic susceptibility [4] | Antibiotic susceptibility [5] | Antibiotic susceptibility [6] | Antibiotic susceptibility [7] | Antibiotic susceptibility [8] | Antibiotic susceptibility [9] | Antibiotic susceptibility [10] | Antibiotic susceptibility [11] | Antibiotic susceptibility [12] | Antibiotic susceptibility [13] | Antibiotic susceptibility [14] | Antibiotic susceptibility [15] | Antibiotic susceptibility [16] | Antibiotic susceptibility [17] | Antibiotic susceptibility [18] | Antibiotic susceptibility [19] | Antibiotic susceptibility [20] | further results
1 | CCN1CCN(C(=O)N[C@@H](C(=O)N[C@@H]2C(=O)N3[C@@H]2SC(C)(C)[C@@H]3C(=O)O)c2ccccc2)C(=O)C1=O [PIP, Piperacillin] | R | S | R | R | R | R | R | R | R | R | R | R | R | R | I | R | R | R | R | R | Antibiotic susceptibility [21]: I; Antibiotic susceptibility [22]: S; Antibiotic susceptibility [23]: I; Antibiotic susceptibility [24]: I; Antibiotic susceptibility [25]: R; Antibiotic susceptibility [26]: R; Antibiotic susceptibility [27]: R; Antibiotic susceptibility [28]: R; Antibiotic susceptibility [29]: R; Antibiotic susceptibility [30]: R; Antibiotic susceptibility [31]: R; Antibiotic susceptibility [32]: R; Antibiotic susceptibility [33]: R
2 | C[C@@H](O)[C@H]1C(=O)N2C(C(=O)O)=C(SCCN=CN)C[C@H]12 [IPM, Imipenem] | R | S | R | I | R | I | S | R | S | R | I | R | I | I | S | I | I | S | R | R | Antibiotic susceptibility [21]: S; Antibiotic susceptibility [22]: S; Antibiotic susceptibility [23]: S; Antibiotic susceptibility [24]: S; Antibiotic susceptibility [25]: R; Antibiotic susceptibility [26]: S; Antibiotic susceptibility [27]: S; Antibiotic susceptibility [28]: S; Antibiotic susceptibility [29]: S; Antibiotic susceptibility [30]: I; Antibiotic susceptibility [31]: R; Antibiotic susceptibility [32]: R; Antibiotic susceptibility [33]: S
3 | COc1c(N2CCNC(C)C2)c(F)cc2c(=O)c(C(=O)O)cn(C3CC3)c12 (stereo not drawn) [GAT, Gatifloxacin] | R | S | R | R | R | R | R | I | R | R | R | R | R | R | S | I | R | S | R | R | Antibiotic susceptibility [21]: R; Antibiotic susceptibility [22]: S; Antibiotic susceptibility [23]: R; Antibiotic susceptibility [24]: R; Antibiotic susceptibility [25]: R; Antibiotic susceptibility [26]: R; Antibiotic susceptibility [27]: R; Antibiotic susceptibility [28]: S; Antibiotic susceptibility [29]: R; Antibiotic susceptibility [30]: R; Antibiotic susceptibility [31]: R; Antibiotic susceptibility [32]: R; Antibiotic susceptibility [33]: R
4 | CN(C)[C@@H]1C(O)=C(C(N)=O)C(=O)[C@@]2(O)C(O)=C3C(=O)c4c(O)cccc4[C@@](C)(O)[C@H]3C[C@@H]12 [TET, Tetracycline] | R | R | R | R | R | R | R | R | R | I | R | R | R | I | I | I | R | I | R | R | Antibiotic susceptibility [21]: R; Antibiotic susceptibility [22]: S; Antibiotic susceptibility [23]: R; Antibiotic susceptibility [24]: R; Antibiotic susceptibility [25]: R; Antibiotic susceptibility [26]: R; Antibiotic susceptibility [27]: R; Antibiotic susceptibility [28]: I; Antibiotic susceptibility [29]: R; Antibiotic susceptibility [30]: R; Antibiotic susceptibility [31]: R; Antibiotic susceptibility [32]: R; Antibiotic susceptibility [33]: R
